# Data published in patent publication US20050267076A1 (priority 2004, published 2005).
# Where two headings read alike, the source gives them in different places.
# Assays:
# Long-Evans rats = assay: 8 hour retention test on a twelve-arm radial maze (spatial memory); format: in vivo, rat; details: vs vehicle, t(11)=2.69, p<0.02
# Method: 12-arm maze test: Behavioral testing was conducted by an experimenter who was blind to drug treatment. 12 Long-Evans rats trained to use a win-shift strategy were given an information trial. During the information trial, 5 of the 12 arms of the 12 arm maze were blocked so that rats were not able to consume food from those blocked arms but could obtain food from each of the 7 open arms. After this session rats were moved to their home cage and placed back in the animal holding room. […] A retroactive memory error is made when the rat enters an arm that was […] on the information trial.
# 12 rats (divided into three groups) were used in the experiment. Sixty minutes prior to the information session, the rats were injected intraperitoneally (IP) with 150 mg/kg ABPA (Saegis Pharmaceuticals, Inc.), 3 mg/kg donepezil, or combination of 150 mg/kg ABPA and 3 mg/kg donepezil. Physiological saline (NaCl) was used as vehicle. Treatment order was counterbalanced among three groups such that each group (N=4) received a different order of vehicle, ABPA, donepezil, and ABPA+donepezil injection across days, for a total of three tests for each treatment in all subjects.
# rats = format: in vivo, rat; details: for performance in the object recognition task: vs saline; for Recognition Score: saline 61%
# Method: The experimental protocol is as follows:
# […]. Both drugs were administered by intraperitoneal (IP) injection. […].
# humans = details: cited from earlier work
# [1] = cited from earlier work
# [2] = in vivo; cited from earlier work
Structure (SMILES),retention test performance on the 12-arm maze (Long-Evans rats; 3 mg/kg donepezil IP 60 min prior to information session),performance in the object recognition task (rats; donepezil 1.7 mg/kg IP 30 min prior to information trial),Recognition Score (rats; donepezil alone at 0.56 mg/kg),Recognition Score (rats; donepezil alone at 1 mg/kg),"cognitive effect in Alzheimer's Disease patients (humans; Barner and Gray, 1998, Rogers and Friedhoff)","side effect profile in humans (humans; human, in vivo)",retention test performance on the 12-arm maze (Long-Evans rats; 150 mg/kg ABPA IP 60 min prior to information session),"performance in the object recognition task (rats; ABPA 3 and 30 mg/kg IP 30 min prior to information trial, delay of 6 hours)","performance in the object recognition task (rats; ABPA 10, 100, 170, and 300 mg/kg IP 30 min prior to information trial, delay of 6 hours)",Recognition Score (rats; ABPA alone at 3 mg/kg),Recognition Score (rats; ABPA alone at 10 mg/kg),water solubility [1],blood brain barrier crossing [2]
"COc1cc2c(cc1OC)C(=O)C(CC1CCN(Cc3ccccc3)CC1)C2 (racemic) [donepezil, (±)-2,3-dihydro-5,6-dimethoxy-2-[[1-(phenylmethyl)-4-piperidinyl]methyl]-1H-inden-1-one, reference compound]",improved performance,significantly improved performance,62%,63%,slight cognitive improvements,cholinergic side effect profile,,,,,,,
"CCCCP(=O)(O)CCCN [ABPA, 3-aminopropyl-(n-butyl)-phosphinic acid]",,,,,,,improved performance,no beneficial effect,significantly enhanced performance,61%,70%,highly water-soluble,readily crosses the blood brain barrier
